Laboratory results taken from ChEMBL document CHEMBL3301546, “MMV Malaria Box yeast growth screening”.

How the values were obtained:
Format in all cases: functional
Saccharomyces cerevisiae [1] = assay: (§1) MMV: Growth assays were conducted using the prototrophic S. cerevisiae strain JHY222. Each MMV compound (0.1 mM) was tested in rich media containing dextrose as a carbon source (Yeast Extract, Peptone, Dextrose; YPD). The growth rate in the presence of each MMV compound was calculated as follows: (i) the first 10 OD readings were averaged and subtracted from all OD readings of the corresponding curve to set the baseline of the growth curve to zero, and (ii) the area under the curve (AUC) was then calculated as the sum of all OD readings. […] A relative growth value was calculated as follows: AUC(DRUG) - AUC(DMSO)/AUC(DMSO); where AUC(DMSO) represents growth measured in a DMSO control well that was on the same microtiter plate of the drug-treated culture.
Saccharomyces cerevisiae [2] = assay: as §1, with “minimal” for “rich”, “Nitrogen Base,” for “Extract, Peptone,”, “YNBD).” for “YPD).”
Saccharomyces cerevisiae [3] = assay: as §1, with “minimal” for “rich”, “ethanol and glycerol” for “dextrose”, “as” for “as a”, “sources” for “source”, “Nitrogen Base, Ethanol, Glycerol; YNBEG).” for “Extract, Peptone, Dextrose; YPD).”

Row | SMILES | Relative Growth (Saccharomyces cerevisiae [1]) | Relative Growth (Saccharomyces cerevisiae [2]) | Relative Growth (Saccharomyces cerevisiae [3])
1 | COc1ccc2c(c1)C1(Nc3ccccc3-c3nc4ccccc4n31)C(=O)N2 (stereo not drawn) | -0.0036 | 0.0329 | -0.0059
2 | CCOc1cc(CNC(C)C(O)c2ccccc2)cc(Cl)c1OCC (stereo not drawn) | -0.0689 | 0.088 | -0.0694
3 | CCOc1c(Cl)cc(CNCC(O)c2ccccc2)cc1OC (stereo not drawn) | -0.0592 | 0.0136 | -0.2647
4 | OC(CNCC1CCCO1)Cn1c2ccc(Cl)cc2c2cc(Cl)ccc21 (stereo not drawn) | -0.0004 | 0.0307 | 0.0106
5 | COc1ccc2nc(C)cc(Nc3ccccc3O)c2c1 | -0.0232 | 0.0332 | -0.0329
6 | Cc1cc(N2CCCC2)nc(Nc2ccc(NC(=O)CCc3ccccc3)cc2)n1 | -0.047 | -0.0661 | -0.093
7 | CN(C)CCNc1cc(-c2ccccc2)nc2ccccc12 | -0.0237 | 0.1058 | 0.0694
8 | COCCNCC(O)Cn1c2ccc(Cl)cc2c2cc(Cl)ccc21 (stereo not drawn) | -0.9998 | -0.1893 | -0.4771
9 | COc1ccc2nc(C)cc(Nc3ccc(Cl)cc3)c2c1 | -0.0836 | 0.0064 | -0.1037
10 | CCC(O)c1ccc(Br)cc1NC(=O)c1cccc(Cl)c1 (stereo not drawn) | 0.0228 | 0.0885 | 0.102
11 | O=c1nc(C=Cc2ccc(Br)cc2)oc2ccccc12 | -0.0705 | 0.007 | 0.0189
12 | Cc1sc2ncnc(Sc3nc4ccccc4[nH]3)c2c1C | 0.0241 | 0.0477 | 0.0545
13 | O=C(O)C(=O)O.Oc1ccccc1CN1CCN(C(c2ccccc2)c2ccccc2)CC1 | -0.1402 | 0.1461 | 0.0338
14 | CN1CCN(c2c3c(c(C#N)c4nc5ccccc5n24)CCC3)CC1 | -0.0644 | 0.2469 | -0.4878
15 | Cc1cc(Nc2cccc(F)c2)nc(NCc2ccccc2)n1 | -0.0448 | 0.0258 | -0.2557
16 | CCOc1ccc(C2N(C)c3ccccc3N2C)cc1 | -0.6451 | -1.0114 | -1.002
17 | CCN(Cc1ccccc1)C1CCN(Cc2cc(Br)ccc2O)CC1.O=C(O)C(=O)O | -0.0428 | 0.0515 | 0.0185
18 | Cl.Clc1cc(Br)ccc1-c1ccc(CNCC2CCNCC2)o1 | 0.004 | 0.0133 | -0.083

Row | SMILES | Relative Growth (Saccharomyces cerevisiae [1]) | Relative Growth (Saccharomyces cerevisiae [2]) | Relative Growth (Saccharomyces cerevisiae [3])
19 | CCOc1ccccc1NC(=O)CN1CCN(C(=O)c2ccco2)CC1 | -0.0315 | 0.1567 | -0.0386
20 | COc1ccc(-c2nonc2NC(=O)c2cccc(Cl)c2)cc1OC | -0.028 | 0.1832 | 0.0561
21 | COc1cc(SC)ccc1C(=O)N1CCCC(C)C1 (stereo not drawn) | -0.0213 | 0.0716 | -0.0182
22 | CC(C)c1ccc(CNCC(O)c2ccccc2)cc1.Cl (stereo not drawn) | -0.02 | 0.1145 | 0.0017
23 | CCOc1cc2c(cc1OCC)C(c1cc(Cl)c(O)c(OCC)c1)NCC2 (stereo not drawn) | 0.0051 | 0.0679 | -0.0121
24 | O=C(O)C(=O)O.Oc1ccc(Br)cc1CN1CCN(Cc2cccc(F)c2)CC1 | -0.1015 | -0.047 | -0.3839
25 | O=c1nc(C=Cc2ccc(Cl)cc2)oc2ccccc12 | 0.0204 | 0.0988 | 0.0415
26 | CN(C)c1ccc(N2C(N)=NC(N)=NC2(C)C)cc1 | -0.0542 | 0.0279 | 0.007
27 | COc1ccc(Nc2nc(NCc3ccccc3)c3ccccc3n2)cc1 | 0.0094 | 0.0331 | -0.0366
28 | COc1cc2c(cc1OC)C1=NNC(=O)C1=NC(C)(C)C2 | -0.48 | -0.0857 | -0.3659
29 | Cl.OC(CNCc1ccccc1)Cn1c2ccccc2c2ccccc21 (stereo not drawn) | -0.0131 | 0.0554 | 0.03
30 | Oc1c2c(nc3cc(-c4ccccc4)nn13)CCCC2 | -0.4545 | 0.0363 | -0.0208
31 | Clc1ccc2c(N3CCCC3)ccnc2c1 | -0.0453 | 0.0172 | -0.0954
32 | CCOc1ccc(CCNC(=O)c2cccs2)cc1OCC | -1.0059 | -0.7048 | -0.3956
33 | C=CCc1c(C)nc2ccccc2c1O | -0.0062 | -0.0056 | 0.1025
34 | Nc1ccn([C@@H]2O[C@H](CO)[C@@H](O)[C@H]2O)c(=O)n1 [CYTIDINE] | -0.0768 | 0.1163 | -0.4063
35 | O=C(Nc1cccc(C2=NCCN2)c1)Nc1cccc(C2=NCCN2)c1 [IMIDOCARB] | -0.365 | 0.0218 | 0.0151
36 | CN(C)c1ccc(C(O)(c2ccc(N(C)C)cc2)c2ccc(N(C)C)cc2)cc1 [METHYLROSANILINE] | -0.0138 | -0.0186 | -0.4054
